Laboratory results from patent US6521611B2 (Eli Lilly and Company, priority 1996, dated 2003).
Bridge positions count the residues as written; N and C are the ends. Square brackets hold non-standard residues; d marks the D form. Peptide text beside a SMILES is read from it. Orn = NCCC[C@H](N)C(=O)O; Mpa = O=C(O)CCS

System: not given
Test: not given
Conditions: not given

SMILES	melting point [°C]
CC(C)(C)OC(=O)C(C(=O)Cc1cccc(C(F)(F)F)c1)N1C(=O)C(N2C(=O)OCC2c2ccccc2)C1C=Cc1ccccc1 (mixture of isomers) [Example 50, tert-Butyl 2(R,S)-[3-(trifluoro)phenylacetyl]-2-[3(S)-(4(S)-phenyloxazolidin-2-on-3-yl)-4(R)-(2-styryl)-azetidin-2-on-1-yl]acetate]	158 to 160
CC1(C(C(=O)NCc2ccccc2)N2C(=O)C(N3C(=O)OCC3c3ccccc3)C2C=Cc2ccccc2)OCCO1 [Example 30, N-[Benzyl]-2-[(1,1-ethyleneketal)acetyl]-2-[3(S)-(4(S)-phenyloxazolidin-2-on-3-yl)-4(R)-(2-styryl)-azetidin-2-on-1-yl)acetamide]	150 to 152
CC(C)(C)C[C@@H](C(=O)OCc1ccccc1)N1C(=O)[C@H](N2C(=O)OC[C@H]2c2ccccc2)[C@@H]1C=Cc1ccco1 [Example 27, Benzyl 2(S)-(2,2-dimethyl)propyl-2-[3(R)-(4(R)-phenyloxazolidin-2-on-3-yl)-4(S)-(1-(fur-2-yl)-ethylen-2-yl)-azetidin-2-on-1-yl]acetate]	180
CC(C)C[C@@H](C(=O)OCc1ccccc1)N1C(=O)[C@@H](N2C(=O)OC[C@@H]2c2ccccc2)[C@H]1CCc1ccccc1 [Example 28, Benzyl 2-(S)-isobutyl-2-[3(S)-(4(S)-phenyloxazolidin-2-on-3-yl)-4(R)-(2-(phenyl)-ethyl)-azetidin-2-on-1-yl]acetate]	138 to 140

System: preterm contractions
Test: not given
Conditions: studied clinically (Goodwin, et al., 1994); cited from earlier work

SMILES	inhibition of preterm contractions versus placebo
CCOc1ccc(C[C@H]2NC(=O)CCSSC[C@@H](C(=O)N3CCC[C@H]3C(=O)N[C@@H](CCCN)C(=O)NCC(N)=O)NC(=O)[C@H](CC(N)=O)NC(=O)[C@H]([C@@H](C)O)NC(=O)[C@H]([C@@H](C)CC)NC2=O)cc1 [atosiban] ([Mpa][dY](Et)ITNCP[Orn]G-NH2; disulfide 1-6)	more significant inhibition of preterm contractions than did placebo

Biological target: T1, human vasopressin V1a receptor (Homo sapiens, UniProt P37288)
T1 construct: expressed in transfected cells; host or cells: CHO (hV1a cell line), membrane preparation
Test: human vasopressin V1a receptor binding, [3H]PMP-AVP, hV1a (CHO) cell membranes
Conditions: [3H]PMP-AVP 0.2 nM, read-out: BINDING AFFINITY (IC50 (nM))
Method: The human vasopressin V1a receptor has been cloned and expressed (Thibonnier et al., Journal of Biological Chemistry, 269, 3304-3310 (1994)). The nucleotide sequence has been deposited in the EMBL Databank under accession number Z11690.
The hV1a cell line was grown in alpha-MEM (alpha modification of Minimum essential medium Eagle, Sigma, St. Louis, Mo., USA) with 10% fetal bovine serum and 250 μg/ml G418 (Gibco, Grand Island, N.Y., USA). To prepare membranes, hV1a cells were grown to confluency in 20 roller bottles. Cells were dissociated with enzyme-free cell dissociation medium (Specialty Media, Lavallette, N.J., USA) and centrifuged at 2500 rpm for 10 minutes. The pellet was resuspended in 40 mL of Tris-HCl (tris[hydroxymethyl]aminomethane hydrochloride) buffer (50 mM, pH 7.4) and homogenized for 1 minute with a Tekmar Tissumizer (Cincinnatti, Ohio USA). The suspension was centrifuged at 40,000×g for 10 minutes. The pellet was resuspended and centrifuged as above. The final pellet was suspended in 80 mL of Tris 7.4 buffer and stored in 4 mL aliquots at −80° C. For assay, aliquots were resuspended in assay buffer and diluted to 125 μg protein per mL. Protein concentration was determined by BCA assay (Pierce, Rockford, Ill., USA).
Assay buffer was prepared by adjusting the pH of a solution of 50 mMol HEPES (N-2-Hydroxyethylpiperazine-N′-2-ethanesulfonic acid, Sigma, St. Louis, Mo., USA), 5 mMol MgCl2, and 1 mMol dithiothreitol pH 7.4 with NaOH, after which 40 μg/mL bacitracin and 10 μg/mL aprotinin were added. The radioligand for binding assays was [^3H]PMP-AVP (Manning vasopressin antagonist, 56 Ci/mMol, DuPont NEN, Boston, MA, USA). The order of additions was 195 μL assay buffer, 200 μL hV1a membranes (25 μg protein) in assay buffer, 5 μL of test agent in dimethylsulfoxide (DMSO) or DMSO alone, and 100 μL [^3H]PMP-AVP in assay buffer (final concentration 0.2 nM). Incubations were for one hour at room temperature. […] The filters were washed with ice-cold 50 mM Tris-HCl (pH 7.7 at 25° C.) and the filter circles were placed in scintillation vials, to which were then added 5 mL Ready Protein Plus scintillation fluid, and counted in a liquid scintillation counter. […] IC50 values were calculated by nonlinear least-squares curve-fitting to a 4-parameter logistic model.

T1 sequence (P37288 whole entry): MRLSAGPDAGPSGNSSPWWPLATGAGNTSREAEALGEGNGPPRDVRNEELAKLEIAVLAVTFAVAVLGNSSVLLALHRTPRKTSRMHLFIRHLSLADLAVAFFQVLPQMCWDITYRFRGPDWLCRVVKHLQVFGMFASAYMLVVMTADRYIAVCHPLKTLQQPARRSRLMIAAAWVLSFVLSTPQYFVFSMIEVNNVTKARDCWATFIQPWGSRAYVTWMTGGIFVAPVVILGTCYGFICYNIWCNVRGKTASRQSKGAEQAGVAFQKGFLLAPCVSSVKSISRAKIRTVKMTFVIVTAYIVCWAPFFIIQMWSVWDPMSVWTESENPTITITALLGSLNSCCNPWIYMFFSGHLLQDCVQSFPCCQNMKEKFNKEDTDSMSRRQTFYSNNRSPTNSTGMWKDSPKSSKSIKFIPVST

SMILES	IC50 [nM]
CCC1(C(C(=O)N2CCN(CCc3ccccc3)CC2)N2C(=O)[C@@H](N3C(=O)OC[C@@H]3c3ccccc3)[C@H]2/C=C/c2ccccc2)OCCO1 (stereo partly drawn) [Example 78]	16
COC(=O)C(N1C(=O)[C@H](N2C(=O)OC[C@H]2c2ccccc2)[C@@H]1C=Cc1ccco1)C(O)(C(=O)c1ccccc1)c1ccccc1 (mixture of isomers) [Example 39, Methyl 2-(R,S)-[1-hydroxy-1,2-diphenyl-2-oxo-ethyl]-2-[3(R)-(4(R)-phenyloxazolidin-2-on-3-yl)-4(S)-(1-(fur-2-yl)-ethylen-2-yl)-azetidin-2-on-1-yl]acetate]	13
CC(C)(C)C(=O)[C@@H](C(=O)OCc1ccccc1)N1C(=O)[C@@H](N2C(=O)OC[C@@H]2c2ccccc2)[C@H]1C=Cc1ccco1 [Example 54B, Benzyl 2-(S)-[2,2-dimethylpropanoyl]-2-[3(S)-(4(S)-phenyloxazolidin-2-on-3-yl)-4(R)-(1-(fur-2-yl)ethylen-2-yl)-azetidin-2-on-1-yl]acetate]	9
CC(C)C[C@@H](C(=O)NCCCN1CCN(C)CC1)N1C(=O)[C@@H](N2C(=O)OC[C@@H]2c2ccccc2)[C@H]1/C=C/c1ccccc1 [Example 97]	42
CCC1(C(C(=O)NCc2cccc(C(F)(F)F)c2)N2C(=O)[C@@H](N3C(=O)OC[C@@H]3c3ccccc3)[C@H]2/C=C/c2ccccc2)OCCO1 (stereo partly drawn) [Example 67]	5
CC(C)(C)OC(=O)C(C(=O)Cc1cccc(C(F)(F)F)c1)N1C(=O)C(N2C(=O)OCC2c2ccccc2)C1C=Cc1ccccc1 (mixture of isomers) [Example 50, tert-Butyl 2(R,S)-[3-(trifluoro)phenylacetyl]-2-[3(S)-(4(S)-phenyloxazolidin-2-on-3-yl)-4(R)-(2-styryl)-azetidin-2-on-1-yl]acetate]	64
CCC1(C(C(=O)NCc2ccccc2)N2C(=O)C(N3C(=O)OCC3c3ccccc3)C2C=Cc2ccccc2)OCCO1 [Example 31, N-[benzyl]-2-[(1,1-ethyleneketal)propionyl]-2-[3(S)-(4(S)-phenyloxazolidin-2-on-3-yl)-4(R)-(2-styryl)-azetidin-2-on-1-yl]acetamide]	23
CC(C)C[C@@H](C(=O)N1CCC(CCN2CCCCC2)CC1)N1C(=O)[C@@H](N2C(=O)OC[C@@H]2c2ccccc2)[C@H]1/C=C/c1ccccc1 [Example 34, 1-{2-(S)-isobutyl-2-[3(S)-(4(S)-phenyloxazolidin-2-on-3-yl)-4(R)-(2-styryl)-azetidin-2-on-1-yl]acetyl}-4-(2-(piperidin-1-yl)-ethyl)piperidine]	78
Cc1cccc(CNC(=O)[C@H](CC(C)C)N2C(=O)[C@@H](N3C(=O)OC[C@@H]3c3ccccc3)[C@H]2/C=C/c2ccccc2)c1 [Example 112]	25
CC(C)(C)C(=O)C(C(=O)OCc1cccc(Cl)c1)N1C(=O)C(N2C(=O)OCC2c2ccccc2)C1C=Cc1ccccc1 (mixture of isomers) [Example 46, 3-Chlorobenzyl 2(R,S)-[2,2-dimethylpropanoyl]-2-[3(S)-(4(S)-phenyloxazolidin-2-on-3-yl)-4(R)-(2-styryl)-azetidin-2-on-1-yl]acetate]	11
CC(C)(C)C(=O)[C@H](C(=O)OCc1ccccc1)N1C(=O)[C@@H](N2C(=O)OC[C@@H]2c2ccccc2)[C@H]1C=Cc1ccco1 [Example 54A, Benzyl 2-(R)-[2,2-dimethylpropanoyl]-2-[3(S)-(4(S)-phenyloxazolidin-2-on-3-yl)-4(R)-(1-(fur-2-yl)ethylen-2-yl)-azetidin-2-on-1-yl]acetate]	2
CC(C)C[C@@H](C(=O)NCc1cccc(Cl)c1)N1C(=O)[C@@H](N2C(=O)OC[C@@H]2c2ccccc2)[C@H]1/C=C/c1ccccc1 [Example 109]	40
CC(C)(C)C(O)C(C(=O)N1CCC(CCN2CCCCC2)CC1)N1C(=O)[C@@H](N2C(=O)OC[C@@H]2c2ccccc2)[C@H]1C=Cc1ccccc1 (stereo partly drawn) [Example 40, 1-{2-(R,S)-[1-hydroxy-2,2-dimethylpropyl]-2-[3(S)-(4(S)-phenyloxazolidin-2-on-3-yl)-4(R)-(2-styryl)-azetidin-2-on-1-yl]acetyl}-4-(2-(piperidin-1-yl)-ethyl)piperidine]	40
CC(C)C[C@@H](C(=O)NCc1cccc(C(F)(F)F)c1)N1C(=O)[C@@H](N2C(=O)OC[C@@H]2c2ccccc2)[C@H]1/C=C/c1ccccc1 [Example 113]	41
CC(C)(C)C[C@@H](C(=O)OCc1ccccc1)N1C(=O)[C@H](N2C(=O)OC[C@H]2c2ccccc2)[C@@H]1C=Cc1ccco1 [Example 27, Benzyl 2(S)-(2,2-dimethyl)propyl-2-[3(R)-(4(R)-phenyloxazolidin-2-on-3-yl)-4(S)-(1-(fur-2-yl)-ethylen-2-yl)-azetidin-2-on-1-yl]acetate]	28

System: golden hamsters
Test: vasopressin-induced flank marking in golden hamsters
Type: in vivo, golden hamsters (Mesocricetus auratus)
Conditions: microinjection into anterior hypothalamus as cocktail with 1 μM vasopressin; scored 10 minutes
Method: In golden hamsters, a particular stereotypy, flank marking behavior, can be induced by micro-injections of vasopressin ([…], 1-100 μM) into the anterior hypothalamus (Ferris, et al., Science, 224, 521-523 (1984); Albers and Ferris, Regulatory Peptides, 12, 257-260 (1985); Ferris et al., European Journal of Pharmacology, 154, 153-159 (1988)). Following the releasing stimulus, the behavior is initiated by grooming, licking and combing of the large sebaceous glands on the dorsolateral flanks. Bouts of flank gland grooming may be so intense that the flank region is left matted and soaked in saliva. After grooming, the hamsters display flank marking behavior, a type of scent marking involved in olfactory communication (Johnston, Physio. Behav., 51, 437-448 (1985); Ferris, et al., Physio. Behav., 40, 661-664 (1987)), by arching the back and rubbing the flank glands vigorously against any vertical surface.
All animals were adult male golden hamsters (Mesocricetus auratus) weighing approximately 160 gm. The animals underwent stereotaxic surgery, and were allowed to recover before behavioral testing. […]
The hamsters were microinjected with 1 μM vasopressin in a volume of […]. […] Animals were scored for flank marking for a period of 10 minutes in a clean cage.

SMILES	inhibition of vasopressin-induced flank marking
CC(C)(C)C(=O)C(C(=O)OCc1ccccc1)N1C(=O)C(N2C(=O)OCC2c2ccccc2)C1C=Cc1ccccc1 (mixture of isomers) [Example 42, Benzyl 2-(R,S)-[2,2-dimethylpropanoyl]-2-[3(S)-(4(S)-phenyloxazolidin-2-on-3-yl)-4(R)-(2-styryl)azetidin-2-on-1-yl]acetate]	inhibited vasopressin-induced flank marking in a dose dependent manner
